Results from ChEMBL document CHEMBL4680377, “Discovery of a Novel Series of Pyridone-Based EP3 Antagonists for the Treatment of Type 2 Diabetes” (ACS Med Chem Lett, 2021).
Values after ≈ are worked out from the molar mass of the structure shown.

Columns and labels:
[1] = Apparent permeability across apical to basolateral side in dog MDCK cells; format: ADME, cell-based, Canis lupus familiaris
[2] = Kinetic solubility of compound in PBS buffer; format: physicochemical; settings: read-out: Kinetic_solubility
[3] = Metabolic stability in rat liver microsomes assessed as intrinsic clearance half life; format: ADME, Microsome
[4] = Metabolic stability in human liver microsomes assessed as intrinsic clearance half life; format: ADME, Microsome
[5] = Kinetic solubility of compound at pH 2; format: physicochemical; settings: buffer, read-out: Kinetic_solubility
[6] = biological target: T1, Prostaglandin E2 receptor EP3 subtype (Homo sapiens, UniProt P43115); test: Displacement of [3H]-PGE2 from human EP3 expressed in Chem-1 cell membranes incubated for 2 hrs by TopCount scintillation plate reader analysis; design: species or system Membrane
T1 sequence (P43115 whole entry): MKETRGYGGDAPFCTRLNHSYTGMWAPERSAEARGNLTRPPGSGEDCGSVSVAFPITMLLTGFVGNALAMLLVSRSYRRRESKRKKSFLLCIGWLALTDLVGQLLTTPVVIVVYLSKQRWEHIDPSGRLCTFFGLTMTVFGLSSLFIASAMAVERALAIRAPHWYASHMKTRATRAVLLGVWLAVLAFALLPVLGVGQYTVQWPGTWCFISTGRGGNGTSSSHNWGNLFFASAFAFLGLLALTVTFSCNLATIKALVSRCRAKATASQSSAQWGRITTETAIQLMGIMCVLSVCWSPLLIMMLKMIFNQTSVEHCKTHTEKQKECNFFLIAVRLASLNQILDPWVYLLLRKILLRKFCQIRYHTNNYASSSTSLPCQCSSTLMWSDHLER

[7] = biological target: T1, Prostaglandin E2 receptor EP3 subtype; test: Antagonist activity at human EP3 expressed in CHO cells assessed as suppression of sulprostone-induced inhibition of forskolin induced cAMP production measured after 30 mins by HTR-FRET assay; format: functional, cell-based

SMILES	Papp A→B [1]	solubility kinetic [2]	half-life [3]	half-life [4]	solubility kinetic [5]	Ki [6]	IC50 [7]
CC(C)[C@@H](C[C@H]1SC(=O)NC1=O)c1ccc(-c2ccc3cccc(F)c3c2)[nH]c1=O (relative stereo)	25.5 ×10⁻⁶ cm/s	23.9 µM (≈ 10.1 µg/mL)	0.77 h	1.24 h	12.2 µM (≈ 5.18 µg/mL)		
CC(C)C(/C=C1\NC(=O)NC1=O)c1ccc(-c2ccc3cccc(F)c3c2)[nH]c1=O (configuration not stated)	12.3 ×10⁻⁶ cm/s	10.7 µM (≈ 4.34 µg/mL)	1.46 h	> 3 h	7.5 µM (≈ 3.04 µg/mL)		
O=C1NC(=O)/C(=C/C2(c3ccc(-c4ccc5cccc(F)c5c4)[nH]c3=O)CCCC2)O1		24.5 µM (≈ 10.3 µg/mL)	> 3 h	> 3 h	2.55 µM (≈ 1.07 µg/mL)		
CC(C)(/C=C1\OC(=O)NC1=O)c1ccc(-c2ccc3cccc(F)c3c2)[nH]c1=O		36.1 µM (≈ 14.2 µg/mL)	> 3 h	1.89 h	1.66 µM (≈ 0.651 µg/mL)		
CCN1CCOc2ccc(-c3ccc(C(/C=C4\OC(=O)NC4=O)(CC)CC)c(=O)[nH]3)cc21		24.1 µM (≈ 10.5 µg/mL)	1.51 h	0.972 h	21 µM (≈ 9.19 µg/mL)		
CCn1ncc2c(F)c(-c3ccc(C(/C=C4\OC(=O)NC4=O)(CC)CC)c(=O)[nH]3)ccc21						1300 nM	> 20000 nM
CC(C)[C@@H](/C=C1\OC(=O)NC1=O)c1ccc(-c2ccc3cccc(F)c3c2)[nH]c1=O		26.4 µM (≈ 10.7 µg/mL)	> 3 h	> 3 h	4.62 µM (≈ 1.88 µg/mL)		
CC(C)C(CC1NC(=O)NC1=O)c1ccc(-c2ccc3cccc(F)c3c2)[nH]c1=O (configuration not stated)	17.1 ×10⁻⁶ cm/s	12.3 µM (≈ 5.01 µg/mL)	0.35 h	1.59 h	13 µM (≈ 5.3 µg/mL)		
O=C1NC(=O)/C(=C/C(Cc2ccccc2)c2ccc(-c3ccc4cccc(F)c4c3)[nH]c2=O)O1 (configuration not stated)		9.1 µM (≈ 4.14 µg/mL)	2.96 h	1.3 h	0.9 µM (≈ 0.409 µg/mL)		
CC(C)[C@H](C[C@H]1SC(=O)NC1=O)c1ccc(-c2ccc3cccc(F)c3c2)[nH]c1=O (relative stereo)	17.6 ×10⁻⁶ cm/s	31.2 µM (≈ 13.2 µg/mL)	0.143 h	0.67 h	4.9 µM (≈ 2.08 µg/mL)		
CC(C)/C(=C1\NC(=O)OC1=O)c1ccc(-c2ccc3cccc(F)c3c2)[nH]c1=O			> 3 h	> 3 h			
CCc1cccc2ccc(-c3ccc(C(/C=C4\OC(=O)NC4=O)(CC)CC)c(=O)[nH]3)cc12			1.77 h	0.178 h			
CC(C)C(/C=C1\SC(=O)NC1=O)c1ccc(-c2ccc3cccc(F)c3c2)[nH]c1=O (configuration not stated)	15.4 ×10⁻⁶ cm/s	25.6 µM (≈ 10.8 µg/mL)	2.62 h	> 3 h	4.8 µM (≈ 2.03 µg/mL)		
O=C1NC(=O)/C(=C/C(c2ccccc2)c2ccc(-c3ccc4cccc(F)c4c3)[nH]c2=O)O1 (configuration not stated)		32.8 µM (≈ 14.4 µg/mL)	> 3 h	2.1 h	15.4 µM (≈ 6.78 µg/mL)		
CCC(/C=C1\OC(=O)NC1=O)(CC)c1ccc(-c2ccc3cccc(C(F)(F)F)c3c2)[nH]c1=O			1.09 h	0.353 h			
CC(C)C(/C=C1\OC(=O)NC1=O)c1cc(Cl)c(-c2ccc3cccc(F)c3c2)[nH]c1=O (configuration not stated)		21.5 µM (≈ 9.48 µg/mL)	> 3 h	> 3 h	3.2 µM (≈ 1.41 µg/mL)		
CCC(CC)C(/C=C1\OC(=O)NC1=O)c1ccc(-c2ccc3cccc(F)c3c2)[nH]c1=O (configuration not stated)		33.7 µM (≈ 14.6 µg/mL)	> 3 h	> 3 h	3.68 µM (≈ 1.6 µg/mL)		
CCC(/C=C1\OC(=O)NC1=O)(CC)c1ccc(-c2ccc3c(c2)OC(C)(C)CC3)[nH]c1=O						2600 nM	> 20000 nM
CC(C)[C@H](/C=C1\OC(=O)NC1=O)c1ccc(-c2ccc3cccc(F)c3c2)[nH]c1=O		25.4 µM (≈ 10.3 µg/mL)	> 3 h	> 3 h	10.8 µM (≈ 4.39 µg/mL)		
CCn1cc2c(F)c(-c3ccc(C(/C=C4\OC(=O)NC4=O)(CC)CC)c(=O)[nH]3)ccc2n1						> 10000 nM	> 20000 nM

SMILES	Papp A→B [1]	solubility kinetic [2]	half-life [3]	half-life [4]	solubility kinetic [5]	Ki [6]	IC50 [7]
CCn1ncc2cc(F)c(-c3ccc(C(/C=C4\OC(=O)NC4=O)(CC)CC)c(=O)[nH]3)cc21						120 nM	
CCC(/C=C1\OC(=O)NC1=O)(CC)c1ccc(-c2ccc3c(F)cc(F)cc3c2)[nH]c1=O						290 nM	
CC(C)/C(=C1/SC(=O)NC1=O)c1ccc(-c2ccc3cccc(F)c3c2)[nH]c1=O	22.9 ×10⁻⁶ cm/s	23.3 µM (≈ 9.52 µg/mL)	> 3 h	> 3 h	9.2 µM (≈ 3.76 µg/mL)		
O=C1NC(=O)/C(=C/C(c2ccc(-c3ccc4cccc(F)c4c3)[nH]c2=O)C2CC2)O1 (configuration not stated)		30.8 µM (≈ 12.5 µg/mL)	> 3 h	1.98 h	3.85 µM (≈ 1.56 µg/mL)		
O=C1NC(=O)/C(=C/C(c2ccc(-c3ccc4cccc(F)c4c3)[nH]c2=O)C2CCCC2)O1 (configuration not stated)			> 3 h	1.21 h			
CC(C)C(/C=C1/C(=O)NC(=O)N1C)c1ccc(-c2ccc3cccc(F)c3c2)[nH]c1=O (configuration not stated)	14.1 ×10⁻⁶ cm/s	34.8 µM (≈ 14.6 µg/mL)	1.08 h	> 3 h	8.3 µM (≈ 3.48 µg/mL)		
CC(C)C(CC1C(=O)NC(=O)N1C)c1ccc(-c2ccc3cccc(F)c3c2)[nH]c1=O (configuration not stated)	17.6 ×10⁻⁶ cm/s	33.6 µM (≈ 14.2 µg/mL)	< 0.0667 h	0.153 h	26.6 µM (≈ 11.2 µg/mL)		
CCn1nc(C)c2ccc(-c3ccc(C(/C=C4\OC(=O)NC4=O)(CC)CC)c(=O)[nH]3)cc21						270 nM	18000 nM
CCn1ncc2cc(C)c(-c3ccc(C(/C=C4\OC(=O)NC4=O)(CC)CC)c(=O)[nH]3)cc21						5700 nM	> 20000 nM
CC(C)C(c1ccc(-c2ccc3cccc(F)c3c2)[nH]c1=O)C1C(=O)NC(=O)N1C (configuration not stated)		17.9 µM (≈ 7.29 µg/mL)	0.263 h	0.375 h	13.6 µM (≈ 5.54 µg/mL)		
CC(C)/C(=C1/OC(=O)NC1=O)c1ccc(-c2ccc3cccc(F)c3c2)[nH]c1=O			> 3 h	> 3 h		140 nM	1300 nM
CCC(/C=C1\OC(=O)NC1=O)(CC)c1ccc(-c2ccc3cc(F)cc(F)c3c2)[nH]c1=O			> 3 h	> 3 h		28 nM	45 nM
CC(C)C(c1ccc(-c2ccc3cccc(F)c3c2)[nH]c1=O)C1NC(=O)NC1=O (configuration not stated)		10.6 µM (≈ 4.17 µg/mL)	0.145 h	0.578 h	5.8 µM (≈ 2.28 µg/mL)		
Cc1cc(C(/C=C2\OC(=O)NC2=O)C(C)C)c(=O)[nH]c1-c1ccc2cccc(F)c2c1 (configuration not stated)		35.7 µM (≈ 15 µg/mL)	> 3 h	> 3 h	39.4 µM (≈ 16.6 µg/mL)		
CC(C)C1(c2ccc(-c3ccc4ccccc4c3)[nH]c2=O)OC(O)=NC1=O (configuration not stated)							68 nM
O=C1NC(=O)/C(=C/C2(c3ccc(-c4ccc5cccc(F)c5c4)[nH]c3=O)CC2)O1		33.4 µM (≈ 13 µg/mL)	> 3 h	2.48 h	27.4 µM (≈ 10.7 µg/mL)	28 nM	55 nM
O=C1NC(=O)/C(=C/C(c2ccc(-c3ccc4cccc(F)c4c3)[nH]c2=O)C2CCCCC2)O1 (configuration not stated)			2.39 h	1.09 h			
CCC(/C=C1\OC(=O)NC1=O)(CC)c1ccc(-c2ccc3cccc(C(C)C)c3c2)[nH]c1=O			1.88 h	0.758 h		120 nM	
CC(C)C(c1ccc(-c2ccc3cccc(F)c3c2)[nH]c1=O)C1SC(=O)NC1=O (configuration not stated)	26.3 ×10⁻⁶ cm/s	20.1 µM (≈ 8.25 µg/mL)	0.76 h	1.87 h	11.3 µM (≈ 4.64 µg/mL)		
